Results taken from paper PMC9867241, “Antioxidant and Cytotoxic Activity of New Polyphenolic Derivatives of Quinazolin-4(3H)-one: Synthesis and In Vitro Activities Evaluation” (Pharmaceutics, 2022).
Converted amounts (≈) assume the structure as drawn.

Assays:
[1] = DPPH˙ radical scavenging assay
Procedure: (§1) The stock solutions (1 mg/mL) of the tested compounds and the controls were obtained, by dissolving the substances in dimethyl sulfoxide (DMSO). Using Jasco V-530, an UV-VIS spectrophotometer (Jasco International Co., Ltd., Tokyo, Japan), we performed the colorimetric determinations in low-volume single-use 10 mm width cuvettes.
(§2) The assays were performed in triplicate and the results are presented as averages for each assay.
The DPPH˙ radical scavenging assay is based on the transfer of one hydrogen from the analyzed compound to the violet stable free radical DPPH˙ (2,2-diphenyl-1-picrylhydrazyl), as we convert it into a yellow compound. The absorbance of the reagent mixed with samples presented inversely proportional values to the amount of DPPH˙ neutralized. The absorbance of the reagent was measured at λ = 517 nm, according to our previous reports. The assay was made in the presence of various concentrations of samples. The used protocol is based on the report of Brand-Williams et al..

[2] = ABTS˙+ radical scavenging assay
Procedure: as §1, §2

[3] = NO˙ radical scavenging assay (Griess reaction); details: PBS pH 7.4, sodium nitroprusside
Procedure: The scavenging of the NO˙ radical was performed by applying previously reported protocols. The in vitro protocol describes the decomposition of sodium nitroprusside in phosphate buffered saline (PBS) at pH = 7.4. The NO˙ radicals would be involved in a Griess reaction if they were not captured by the tested compounds. This reaction results from the formation of an azo dye, with maximum absorption at 546 nm. This azo dye is formed from sulfanilic acid and naphthyl ethylenediamine dichloride.

[4] = Cu^2+ chelation assay (murexide competition)
Source text: With murexide as a chromophoric chelator, we performed the protocol followed for the evaluation of Cu^2+ chelating activities of the compounds using an adaptation of the method presented by Cesari et al. and Wu et al.. Using Equation (6), we calculated the copper chelation capacities of the 5a–d and 6a–d compounds:(6) copper chelation (%)=(A485/A520)control−(A485/A520)sample/(A485/A520)control×100
The evaluation of the Cu^2+ chelation activity of compounds was made based on the competition for Cu^2+ with murexide. The chelating activity of compounds for the cupric ions found in the current assay is significant for the pyrogallol derivatives, being quite close to EDTA-Na2.

[5] = Fe^2+ chelation assay (ferrozine competition)
Procedure: In the protocol used for evaluating the Fe^2+ chelating ability of the compounds, the absorbances of the solutions were determined at λ = 562 nm, against a blank sample. The method was adapted from the initial report of Benzie and Strain et al., which was previously reported by our group. Using Equation (5), we calculated the iron chelation capacities of the 5a–d and 6a–d compounds:(5) iron chelation (%)=control absorbance−sample absorbance/control absorbance×100
The chelating capacity of the tested compounds of Fe^2+ was evaluated based on their competition for Fe^2+ with ferrozine.

[6] = system: LNCaP (prostate carcinoma) cells; assay: Cytotoxicity, Alamar blue assay, LNCaP cells; type: cell-based; details: Homo sapiens, 24 h exposure
Source text: (§3) Normal human foreskin (BJ) fibroblasts and two types of cancer cells, namely A549 (lung adenocarcinoma) and LNCaP (prostate carcinoma) purchased from American Type Culture Collection (Manassas, VA, USA), were used in the experiments. Each cell line was maintained in a different culture medium, depending on the metabolic necessities of the cells. BJ cells were maintained in Dulbecco’s modified Eagle’s medium (DMEM) with low glucose. A549 cells were maintained in DMEM with high glucose […], while LNCaP cells were grown in Roswell Park Memorial Institute (RPMI) 1640 medium with high glucose (5 g/L). All media used were supplemented with 10% fetal bovine serum (FBS) and were refreshed every two days. Cells were used in experiments or subcultured when they reached 70–80% confluence.
(§4) In 100 µL in 96-well plates, a number of 30,000 LNCaP cells, 15,000 A549 cells, and 7500 normal (BJ) cells were seeded. Because the cells have different sizes and volumes, the purpose of the different seedings was to achieve a confluency of 70–80% after 24 h. All types of cells were further exposed to the synthesized compounds (5a–d and 6a–d) for 24 h, at a concentration ranging from 12.5 to 100 µg/mL. Post-exposure, the media were removed, and the cells were washed with phosphate buffer saline (PBS). Their viability was evaluated using Alamar blue (AB) assay as previously described. Briefly, the cells were incubated with a 200 µM resazurin solution for 4 h. Using a Synergy 2 multi-mode microplate reader, we measured the fluorescence. The measurement was performed at λexcitation = 530/25 nm; λemission = 590/35 nm. We conducted the experiments using three biological replicates, each one including 6 technical replicates. As negative controls (NC), cells exposed to culture medium containing 0.2% DMSO were used. Compared to the NC (100%), the results were expressed as relative values. We used IC50 values for the potency evaluation, and calculated them for each cell line, using the dose-effect curves obtained by fitting the experimental data with a 4-parameter logistic curve.
(§5) Mean values ± standard deviation (SD) values of at least three biological replicates were used to calculate experimental data. One-way analysis of variance (ANOVA) with a post hoc Holm–Sidak test was used to statistically examine the data. Using SigmaPlot 11.0 software (Systat, Software Inc., Chicago, IL, USA), we performed the graphical display and data analysis. From a statistical point of view, the results were considered different, at values of p < 0.05.

[7] = system: normal human foreskin fibroblasts (BJ); assay: Cytotoxicity, Alamar blue assay, BJ cells; type: cell-based; details: Homo sapiens, Fibroblast; 24 h exposure, Alamar blue
Source text: as §3, §4, §5

[8] = system: A549 (lung adenocarcinoma) cells; assay: Cytotoxicity, Alamar blue assay, A549 cells; type: cell-based; details: Homo sapiens, 24 h exposure
Source text: as §3, §4, §5

## Cc1c(C)c2c(c(C)c1O)CCC(C)(C(=O)O)O2 (stereo not shown) [Trolox, reference compound]
[1]
  IC50: 18.7 µM
  IC50 (DPPH˙ scavenging): 4.68 µg/mL (≈ 18.7 µM)
[1]; 1.25 µg/mL
  % of DPPH˙ Scavenging: 17.01%
[1]; 2.5 µg/mL
  % of DPPH˙ Scavenging: 28.53%
[1]; 3.75 µg/mL
  % of DPPH˙ Scavenging: 40.42%
[1]; 5 µg/mL
  % of DPPH˙ Scavenging: 53.87%
[1]; 7.5 µg/mL
  % of DPPH˙ Scavenging: 75.85%
[1]; 10 µg/mL
  % of DPPH˙ Scavenging: 94.85%
[1]; 12.5 µg/mL
  % of DPPH˙ Scavenging: + (+ represents more than 95%)
[1]; 15 µg/mL
  % of DPPH˙ Scavenging: + (+ represents more than 95%)
[2]
  IC50: 18.6 µM
[2]; 0.83 µg/mL
  % of ABTS˙^+ Scavenging: 38.66%
[2]; 1.67 µg/mL
  % of ABTS˙^+ Scavenging: 53.16%
[2]; 3.33 µg/mL
  % of ABTS˙^+ Scavenging: 66.54%
[2]; 4.99 µg/mL
  % of ABTS˙^+ Scavenging: 94.57%
[2]; 6.66 µg/mL
  % of ABTS˙^+ Scavenging: + (+ represents more than 95%)
[2]; 9.99 µg/mL
  % of ABTS˙^+ Scavenging: + (+ represents more than 95%)
[2]; 13.32 µg/mL
  % of ABTS˙^+ Scavenging: + (+ represents more than 95%)

## O=C(O)c1cc(O)ccc1O [Gentisic acid, reference compound]
[3]
  % of NO˙ Scavenged: 48.14%

## O=C([O-])CN(CCN(CC(=O)[O-])CC(=O)O)CC(=O)O.[Na+].[Na+] [EDTA-Na2, reference compound]
[4]; 3.36 µg/mL
  Cupric ions Chelation Capacity (%): 10.39%
[4]; 8.40 µg/mL
  Cupric ions Chelation Capacity (%): 22.68%
[4]; 16.80 µg/mL
  Cupric ions Chelation Capacity (%): 44.51%
[5]; 17.70 µg/mL
  Ferrous ions Chelation Capacity (%): 1.32%
[5]; 20.59 µg/mL
  Ferrous ions Chelation Capacity (%): 20.59%
[5]; 29.41 µg/mL
  Ferrous ions Chelation Capacity (%): 42.89%
[5]; 44.11 µg/mL
  Ferrous ions Chelation Capacity (%): 95.10%
[5]; 58.82 µg/mL
  Ferrous ions Chelation Capacity (%): + (+ represents more than 95%)
[5]; 88.23 µg/mL
  Ferrous ions Chelation Capacity (%): + (+ represents more than 95%)
[5]; 117.64 µg/mL
  Ferrous ions Chelation Capacity (%): + (+ represents more than 95%)
[5]; 257.46 µg/mL
  Ferrous ions Chelation Capacity (%): + (+ represents more than 95%)
[5]; 343.28 µg/mL
  Ferrous ions Chelation Capacity (%): + (+ represents more than 95%)

## O=C1O[C@H]([C@@H](O)CO)C(O)=C1O [Ascorbic acid, reference compound]
[1]
  IC50: 16.1 µM
  IC50 (DPPH˙ scavenging): 2.83 µg/mL (≈ 16.1 µM)
[1]; 1.25 µg/mL
  % of DPPH˙ Scavenging: 35.11%
[1]; 2.5 µg/mL
  % of DPPH˙ Scavenging: 47.45%
[1]; 3.75 µg/mL
  % of DPPH˙ Scavenging: 55.71%
[1]; 5 µg/mL
  % of DPPH˙ Scavenging: 64.21%
[1]; 7.5 µg/mL
  % of DPPH˙ Scavenging: 79.16%
[1]; 10 µg/mL
  % of DPPH˙ Scavenging: 94.39%
[1]; 12.5 µg/mL
  % of DPPH˙ Scavenging: + (+ represents more than 95%)
[1]; 15 µg/mL
  % of DPPH˙ Scavenging: + (+ represents more than 95%)
[2]
  IC50: 11.4 µM
[2]; 0.83 µg/mL
  % of ABTS˙^+ Scavenging: 60.97%
[2]; 1.67 µg/mL
  % of ABTS˙^+ Scavenging: 73.24%
[2]; 3.33 µg/mL
  % of ABTS˙^+ Scavenging: 87.73%
[2]; 4.99 µg/mL
  % of ABTS˙^+ Scavenging: + (+ represents more than 95%)
[2]; 6.66 µg/mL
  % of ABTS˙^+ Scavenging: + (+ represents more than 95%)
[2]; 9.99 µg/mL
  % of ABTS˙^+ Scavenging: + (+ represents more than 95%)
[2]; 13.32 µg/mL
  % of ABTS˙^+ Scavenging: + (+ represents more than 95%)

## COc1cccc2c1C(=O)c1c(O)c3c(c(O)c1C2=O)C[C@@](O)(C(=O)CO)C[C@@H]3O[C@H]1C[C@H](N)[C@H](O)[C@H](C)O1 [Doxorubicin, reference compound]
[6]
  IC50: 0.74 µg/mL
[7]
  IC50: > 7.5 µg/mL
[8]
  IC50: 0.54 µg/mL
